According to US9546383B2, “Human pluripotent embryonic stem cells produced by nuclear transfer using a somatic cell nucleus treated with HVJ-E extract and an oocyte from a donor cycle that produced 15 or fewer oocytes” (priority 2013, dated 2017):
Where a SMILES comes first, the peptide text is derived from it. [ ]: non-standard residue; d: D form. d(hArg(Et2)) = CCN=C(NCC)NCCCC[C@@H](N)C(=O)O; hArg(Et2) = CCN=C(NCC)NCCCC[C@H](N)C(=O)O; dPhe(4-Cl) = N[C@H](Cc1ccc(Cl)cc1)C(=O)O; d2Nal = N[C@H](Cc1ccc2ccccc2c1)C(=O)O; d3Pal = N[C@H](Cc1cccnc1)C(=O)O

Key:
[1] = Ovarian stimulation of egg donors under different pituitary suppression regimens; assay type: in vivo, human; conditions: antagonist 6 cycles, agonist 4 cycles
Procedure: Optimal stimulation protocols giving the best chance of producing oocytes capable of producing NT-ESCs using SCNT were sought. The impact of GnRH agonists and antagonists used to suppress the pituitary function of egg donors were first assessed. Prior to stimulations, the anti-mullerian hormone (AMH) level and antral follicle counts (AFC) were measured for each individual egg donor (Table S3). Donors with higher AMH and AFC profiles are associated with high ovarian reserve and received the GnRH agonist Lupron® (4 cycles) while the remaining donors were provided with the GnRH antagonist (ganirelix, 6 cycles) (Table 3).
Ovarian stimulation protocols followed established clinical IVF guidelines as we described previously (Tachibana et al, 2013 supra). Briefly, a combination of recombinant follicle stimulating hormone (rFSH) and human menopausal gonadotropins (hMG) and either GnRH agonist (Lupron®, Tap Pharmaceutical Products, Lake Forest, Ill.) or antagonist (Ganirelix®, Merck & Co, Whitehouse Station, N.J.) were given. Human chorionic gonadotropin (hCG) was prescribed to trigger oocyte maturation. Self administration of injectable rFSH (sc, Follistim®, Merck & Co, Whitehouse Station, N.J.) commenced on cycle day 2 or 3 and continued for approximately 8-12 days. The starting gonadotropin dose was 75-125 IU/day and 1-2 A hMG (sc, Menopur®, Ferring Pharmaceuticals, Inc. Parsippany, N.J.); the dose was adjusted per individual response using an established step-down regimen until the day of hCG injection. Ovarian response and follicular growth were monitored by transvaginal ultrasound and measurements of serum estradiol levels. When two or more follicles reached >18 mm in diameter, subjects received hCG ([…], sc, Ovidrel®, EMDSerono, Rockland, Mass.) to trigger maturation. Thirty-six hours following hCG injection, subjects underwent oocyte retrieval via transvaginal follicular aspirations.

human SCNT embryos [2] = assay: Human SCNT embryo development and NT-ESC derivation by GnRH agonist or antagonist treatment of oocyte donor; assay type: cell-based; conditions: oocytes from treated donors
Procedure: A retrospective analysis of ovarian stimulation procedures was conducted in order to determine the effect of the number of oocytes retrieved per cycle on human SCNT embryo development and NT-ESC derivation outcomes. Oocyte donation cycles were divided into three groups based on the range of collected mature MII oocytes—10 or fewer oocytes per cycle (5 donors), between 11 to 15 oocytes (2 donors) and more than 16 oocytes per cycle (3 donors). While survival after enucleation, fusion, pronuclear formation and cleavage of SCNT embryos were similar between these groups, more embryos derived from the donors producing ≧16 MII oocytes/cycle arrested after the 8-cell stage than the other two groups (FIG. 5A). In addition, the quality of SCNT blastocysts also negatively correlated with the number of collected oocytes per cycle. […] The peak estradiol (E2) level measured in blood of egg donors prior to hCG priming positively correlated with the subsequent yield of oocytes (FIG. 10). […]
Optimal stimulation protocols giving the best chance of producing oocytes capable of producing NT-ESCs using SCNT were sought. The impact of GnRH agonists and antagonists used to suppress the pituitary function of egg donors were first assessed. Prior to stimulations, the anti-mullerian hormone (AMH) level and antral follicle counts (AFC) were measured for each individual egg donor (Table S3). […]

human SCNT embryos [3] = assay: Human SCNT with caffeine during enucleation and fusion: spindle formation and blastocyst development; assay type: cell-based
Procedure: As expected, somatic cell nuclei introduced into oocyte cytoplasts under these conditions efficiently formed spindle-like structures detectable under birefringence microscope (83.3%, 10/12) (FIG. 2D). […] Human SCNT blastocysts in this group contained visible, prominent ICMs similar to that observed for IVF embryos (FIG. 2E).
Enucleation of MII spindles were performed as described previously (Tachibana et al., 2013 supra). […] The droplet was covered with tissue culture oil and oocytes maintained at 37° C. for 10-15 min before spindle removal. The dish was then mounted on the stage of an inverted microscope (Olympus IX71®) equipped with a stage warmer (http://www.tokaihit.com) Narishige micromanipulators, Oosight™ Imaging System (www.cri-inc.com) and a laser objective (www.hamiltonthorne.com). An oocyte was positioned by a holding pipette so that the spindle was situated between the 2 o'clock and 4 o'clock position. The zona pellucida next to the spindle was drilled with a laser pulse and an enucleation pipette was inserted through the opening. A small amount of cytoplasm surrounded by plasma membrane and contacting spindle was aspirated into the pipette. Next, a disaggregated fibroblast was aspirated into a micropipette and briefly transferred to the drop containing HVJ-E extract (Ishihara Sangyo Kaisha Ltd). […]

Monkey SCNT embryo [4] = conditions: 37.5 nM TSA; from 4% without; cited from earlier work
monkey SCNT blastocysts = assay: Monkey NT-ESC isolation after treatment with TSA; assay type: cell-based, rhesus macaque
Procedure: (§1) However, the quality of such blastocysts and their potential to give rise to stable ESCs remained unknown until this current disclosure. A total of 16 monkey SCNT blastocysts produced with TSA treatment were plated on mitotically inactivated mouse embryonic fibroblast (mEF) feeders. None of these blastocysts produced NT-ESC lines (Table 1). Lower TSA concentrations as well as shorter exposure times to TSA had no effect on monkey SCNT blastocyst development and ESC isolation.
(§2) Oocyte collections, SCNT, embryo culture and NT-ESC isolation procedures were performed as previously described (Byrne et al, 2007 supra; Sparman et al., 2009, supra; Sparman et al, 2010 supra).

Monkey SCNT embryo [5] = assay: Monkey SCNT embryo development after treatment with trichostatin A (TSA); assay type: cell-based, rhesus macaque
Procedure: as §1, §2

[6] = TSA 10 nM, 12 h, 23 plated blastocysts

In the case of `CCNC(=O)[C@@H]1CCCN1C(=O)[C@H](CCCNC(=N)N)NC(=O)[C@H](CC(C)C)NC(=O)[C@@H](CC(C)C)NC(=O)[C@H](Cc1ccc(O)cc1)NC(=O)[C@H](CO)NC(=O)[C@H](Cc1c[nH]c2ccccc12)NC(=O)[C@H](Cc1c[nH]cn1)NC(=O)[C@@H]1CCC(=O)N1` [GnRH agonist], the “Peak E2” value [1] was 2709 ± 1597.3 and the “SCNT embryo development beyond the 8-cell stage” value (human SCNT embryos [2]) was “impaired”.
In the case of `CCN=C(NCC)NCCCC[C@H](NC(=O)[C@H](CC(C)C)NC(=O)[C@@H](CCCCNC(=NCC)NCC)NC(=O)[C@H](Cc1ccc(O)cc1)NC(=O)[C@H](CO)NC(=O)[C@@H](Cc1cccnc1)NC(=O)[C@@H](Cc1ccc(Cl)cc1)NC(=O)[C@@H](Cc1ccc2ccccc2c1)NC(C)=O)C(=O)N1CCC[C@H]1C(=O)N[C@H](C)C(N)=O` [GnRH antagonist, ganirelix] (Ac-[d2Nal][dPhe(4-Cl)][d3Pal]SY[d(hArg(Et2))]L[hArg(Et2)]P[dA]-NH2), the “# oocytes (MII oocytes collected per cycle, mean±SD)” value [1] was 11.7±5.6, the “Peak E2” value [1] was 2568.2 ± 806.1 and the NT-ESC lines derived (human SCNT embryos [2]) was “six”.
For `Cn1c(=O)c2c(ncn2C)n(C)c1=O` [caffeine], the “blastocyst development of caffeine treated embryos” value (human SCNT embryos [3]; 1.25 mM caffeine during enucleation and fusion) was 23.5% and the “somatic cell nuclei forming spindle-like structures” value (human SCNT embryos [3]; 1.25 mM caffeine during enucleation and somatic cell fusion, 10/12) was 83.3%.
In the case of `CC(/C=C/C(=O)NO)=C\[C@@H](C)C(=O)c1ccc(N(C)C)cc1` [TSA, trichostatin A], the “development of monkey SCNT embryos to blastocysts” value (Monkey SCNT embryo [4]) is listed as 18%, the “# NT-ESCs” value (monkey SCNT blastocysts; TSA 5 nM, 12 h, 7 plated blastocysts) is listed as 0 and the “# NT-ESCs” value (monkey SCNT blastocysts; [6]) is listed as 3. The “# NT-ESCs (%)” value (monkey SCNT blastocysts; [6]) was 13%, the “# NT-ESCs” value (monkey SCNT blastocysts; TSA 10 nM, 24 h, 4 plated blastocysts) was 0 and the “8-cell (%)” value (Monkey SCNT embryo [5]; TSA 5 nM for 12 h, N 212) was “(92.8) %”. For the same compound, the “8-cell, number” value (Monkey SCNT embryo [5]; TSA 5 nM for 12 h, N 212) was 192, the “Blastocysts (%)” value (Monkey SCNT embryo [5]; TSA 5 nM for 12 h, N 212) was 14.5% and the “Blastocysts, number” value (Monkey SCNT embryo [5]; TSA 5 nM for 12 h, N 212) was 30. The “CM (%)” value (Monkey SCNT embryo [5]; TSA 5 nM for 12 h, N 212) was “(26.0) %”, the “CM, number” value (Monkey SCNT embryo [5]; TSA 5 nM for 12 h, N 212) was 58 and the “PN (%)” value (Monkey SCNT embryo [5]; TSA 5 nM for 12 h, N 212) was “(98.6) %”. For the same compound, the “PN, number” value (Monkey SCNT embryo [5]; TSA 5 nM for 12 h, N 212) was 207, the “fused (%)” value (Monkey SCNT embryo [5]; TSA 5 nM for 12 h, N 212) was “(99.1) %” and the “fused, number” value (Monkey SCNT embryo [5]; TSA 5 nM for 12 h, N 212) was 210. For the same compound, the “8-cell (%)” value (Monkey SCNT embryo [5]; TSA 10 nM for 12 h, N 571) was “(93.7) %”, the “8-cell, number” value (Monkey SCNT embryo [5]; TSA 10 nM for 12 h, N 571) was 494 and the “Blastocysts (%)” value (Monkey SCNT embryo [5]; TSA 10 nM for 12 h, N 571) was 18.8%. For the same compound, the “Blastocysts, number” value (Monkey SCNT embryo [5]; TSA 10 nM for 12 h, N 571) was 99, the “CM (%)” value (Monkey SCNT embryo [5]; TSA 10 nM for 12 h, N 571) was “(27.9) %” and the “CM, number” value (Monkey SCNT embryo [5]; TSA 10 nM for 12 h, N 571) was 147. For the same compound, the “PN (%)” value (Monkey SCNT embryo [5]; TSA 10 nM for 12 h, N 571) was “(94.4) %”, the “PN, number” value (Monkey SCNT embryo [5]; TSA 10 nM for 12 h, N 571) was 535 and the “fused (%)” value (Monkey SCNT embryo [5]; TSA 10 nM for 12 h, N 571) was “(99.3) %”. For the same compound, the “fused, number” value (Monkey SCNT embryo [5]; TSA 10 nM for 12 h, N 571) was 567, the “8-cell (%)” value (Monkey SCNT embryo [5]; TSA 10 nM for 24 h, N 108) was “(97.1) %” and the “8-cell, number” value (Monkey SCNT embryo [5]; TSA 10 nM for 24 h, N 108) was 100. The “Blastocysts (%)” value (Monkey SCNT embryo [5]; TSA 10 nM for 24 h, N 108) was 24.3%, the “Blastocysts, number” value (Monkey SCNT embryo [5]; TSA 10 nM for 24 h, N 108) was 25 and the “CM (%)” value (Monkey SCNT embryo [5]; TSA 10 nM for 24 h, N 108) was “(32.0) %”. The “CM, number” value (Monkey SCNT embryo [5]; TSA 10 nM for 24 h, N 108) was 33, the “PN (%)” value (Monkey SCNT embryo [5]; TSA 10 nM for 24 h, N 108) was “(100) %” and the “PN, number” value (Monkey SCNT embryo [5]; TSA 10 nM for 24 h, N 108) was 104. The “fused (%)” value (Monkey SCNT embryo [5]; TSA 10 nM for 24 h, N 108) was “(95.4) %”, the “fused, number” value (Monkey SCNT embryo [5]; TSA 10 nM for 24 h, N 108) was 104 and the “8-cell (%)” value (Monkey SCNT embryo [5]; TSA 37.5 nM for 24 h, N 511) was “(90.3) %”. For the same compound, the “8-cell, number” value (Monkey SCNT embryo [5]; TSA 37.5 nM for 24 h, N 511) was 418, the “Blastocysts (%)” value (Monkey SCNT embryo [5]; TSA 37.5 nM for 24 h, N 511) was 18.4% and the “Blastocysts, number” value (Monkey SCNT embryo [5]; TSA 37.5 nM for 24 h, N 511) was 85. The “CM (%)” value (Monkey SCNT embryo [5]; TSA 37.5 nM for 24 h, N 511) was “(23.1) %”, the “CM, number” value (Monkey SCNT embryo [5]; TSA 37.5 nM for 24 h, N 511) was 107 and the “PN (%)” value (Monkey SCNT embryo [5]; TSA 37.5 nM for 24 h, N 511) was “(99.0) %”. The “PN, number” value (Monkey SCNT embryo [5]; TSA 37.5 nM for 24 h, N 511) was 498, the “fused (%)” value (Monkey SCNT embryo [5]; TSA 37.5 nM for 24 h, N 511) was “(98.4) %” and the “fused, number” value (Monkey SCNT embryo [5]; TSA 37.5 nM for 24 h, N 511) was 503. For the same compound, the “effect on blastocyst rates” value (Monkey SCNT embryo [5]; reducing TSA concentration to 10 nM or shortening exposure from 24 h to 12 h) was “did not affect blastocyst rates”.
